One assay addresses Human Full Length PARG (Homo sapiens (Human), UniProt Q86W56). The assay is described as follows: PARG enzyme assay (TR-FRET). It counts as biochemical. To be noted: read-out: PARG Biochem IC50 Geomean. (In general: TR-FRET usually uses a lanthanide donor and a delayed reading to cut background.)
The next assay concerns PARG in HeLa cell line. The assay is described as follows: PARG cell assay (PAR chain immunofluorescence after MMS). The conditions noted are these: HeLa cells, MMS 50 μg/mL, read-out: PARG Cell IC50 Geomean. The assay is classed as cell-based. The gist of the method:
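HeLa cells were dosed with compound for 1 h, then given MMS at 50 μg/mL final for a further hour. Cells were methanol-fixed, permeabilised and stained overnight at 4° C with anti-PAR monoclonal antibody. Retained nuclear PAR chains, detected by indirect immunofluorescence, indicate PARG inhibition.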

Where two headings read alike, the source gives them in different places.

Data on 45 molecules can be found in patent US10239843B2 (CANCER RESEARCH TECHNOLOGY LIMITED, priority 2014, dated 2019).

Human Full Length PARG, sequence (Q86W56 whole entry): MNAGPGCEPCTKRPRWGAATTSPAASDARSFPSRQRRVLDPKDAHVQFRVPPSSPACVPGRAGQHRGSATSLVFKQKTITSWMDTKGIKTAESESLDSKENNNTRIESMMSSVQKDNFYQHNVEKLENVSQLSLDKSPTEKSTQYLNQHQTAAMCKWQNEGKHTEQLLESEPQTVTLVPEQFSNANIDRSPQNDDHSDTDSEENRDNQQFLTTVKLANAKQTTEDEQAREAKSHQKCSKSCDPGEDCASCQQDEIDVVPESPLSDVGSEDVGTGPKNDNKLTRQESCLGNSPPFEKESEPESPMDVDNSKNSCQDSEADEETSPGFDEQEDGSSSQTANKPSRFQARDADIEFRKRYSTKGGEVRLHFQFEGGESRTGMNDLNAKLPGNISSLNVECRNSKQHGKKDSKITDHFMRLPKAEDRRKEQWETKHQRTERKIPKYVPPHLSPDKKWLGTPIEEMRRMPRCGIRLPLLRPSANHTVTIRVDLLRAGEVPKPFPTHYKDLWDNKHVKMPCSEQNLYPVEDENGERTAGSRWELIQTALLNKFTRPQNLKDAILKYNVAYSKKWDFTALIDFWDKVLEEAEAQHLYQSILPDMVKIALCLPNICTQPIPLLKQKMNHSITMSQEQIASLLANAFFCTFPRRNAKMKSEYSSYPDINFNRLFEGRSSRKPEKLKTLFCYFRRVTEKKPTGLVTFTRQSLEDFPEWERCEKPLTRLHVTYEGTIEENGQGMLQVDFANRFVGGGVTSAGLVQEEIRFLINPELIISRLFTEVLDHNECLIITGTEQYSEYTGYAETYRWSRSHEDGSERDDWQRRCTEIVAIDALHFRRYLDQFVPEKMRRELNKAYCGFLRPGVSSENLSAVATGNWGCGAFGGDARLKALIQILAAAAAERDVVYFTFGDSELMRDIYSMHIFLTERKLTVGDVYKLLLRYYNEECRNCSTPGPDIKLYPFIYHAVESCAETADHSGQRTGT

The term IC50 denotes the point on the concentration scale where inhibition reaches its midpoint. `Cc1cc(Cn2c(=O)c3cc(S(=O)(=O)NC4(C)CC4)ccc3n(Cc3cnn(C)c3)c2=O)on1` [Example 330]: the 50% inhibitory concentration (IC50) at Human Full Length PARG was determined as 96 nM; in the assay on PARG in HeLa cell line (Homo sapiens), 164 nM.
The corresponding values for `CCOC(=O)Cn1c(=O)n(Cc2cc(C)no2)c(=O)c2cc(S(=O)(=O)NC3(C)CC3)ccc21` [Example 332] are 356 nM and 462 nM.
As for `Cn1cc(Cn2c(=O)[nH]c3ccc(S(=O)(=O)NC4(C#N)CC4)cc3c2=O)cn1` [Example 336, N-(1-Cyanocyclopropyl)-3-[(1-methylpyrazol-4-yl)methyl]-2,4-dioxo-1H-quinazoline-6-sulfonamide], the IC50 is 401 nM at Human Full Length PARG and 17900 nM in the assay on PARG in HeLa cell line.
For `Cc1cc(Cn2c(=O)c3cc(S(=O)(=O)NC4(C)CC4)ccc3n(CCO)c2=O)on1` [Example 337], the IC50 on Human Full Length PARG was 417 nM; in the assay on PARG in HeLa cell line (Homo sapiens), 772 nM.
The corresponding values for `Cc1cc(Cn2c(=O)c3cc(S(=O)(=O)NC4(C)CC4)ccc3n(C3COC3)c2=O)on1` [Example 339] are 479 nM and 487 nM.
The like results for `Cc1cc(Cn2c(=O)c3cc(S(=O)(=O)NC4(C)CC4)ccc3n(CC3(CO)COC3)c2=O)on1` [Example 340] were, in that order, 389 nM and 3480 nM.
As for `Cc1cc(Cn2c(=O)c3cc(S(=O)(=O)NC4(C)CC4)ccc3n(CCCN3CCN(C)CC3)c2=O)on1` [Example 342], the IC50 on Human Full Length PARG turned out to be 307 nM; with PARG in HeLa cell line (Homo sapiens), 853 nM.
Take `Cn1cc(Cn2c(=O)c3cc(S(=O)(=O)NC4(C)CC4)ccc3n(CC3CCO3)c2=O)cn1` (stereo not drawn) [Example 343]: the IC50 at Human Full Length PARG was 195 nM; in the assay on PARG in HeLa cell line (Homo sapiens), 351 nM.
The like results for `Cn1cc(Cn2c(=O)c3cc(S(=O)(=O)NC4(C#N)CC4)ccc3n(C)c2=O)cn1` [Example 344] were, in that order, 491 nM and 2110 nM.
`Cc1cc(Cn2c(=O)n(Cc3cnn(C)c3)c(=O)c3cc(S(=O)(=O)NC4(C#N)CC4)ccc32)n(C)n1` [Example 345]: the concentration for half-maximal inhibition (IC50) worked out at 61 nM on Human Full Length PARG and 2880 nM in the assay with PARG in HeLa cell line (Homo sapiens).
Consider `Cn1cc(Cn2c(=O)c3cc(S(=O)(=O)NC4(C#N)CC4)ccc3n(CC3CC3)c2=O)cn1` [Example 346], for which the IC50 at Human Full Length PARG was 47 nM; in the assay with PARG in HeLa cell line (Homo sapiens), 390 nM.
The corresponding values for `CCn1c(=O)n(Cc2cnn(C)c2)c(=O)c2cc(S(=O)(=O)NC3(C#N)CC3)ccc21` [Example 347] are 210 nM and 916 nM.
In the case of `Cn1cc(Cn2c(=O)c3cc(S(=O)(=O)NC4(C)CC4)ccc3n(CC3(F)COC3)c2=O)cn1` [Example 348], the half-maximal inhibitory concentration (IC50) stood at 101 nM at Human Full Length PARG and 328 nM in the assay with PARG in HeLa cell line (Homo sapiens).
The corresponding values for `Cc1cc(Cn2c(=O)c3cc(S(=O)(=O)NC4(C)CC4)ccc3n(CC3CCO3)c2=O)on1` (stereo not drawn) [Example 349] are 252 nM and 632 nM.
In the case of `Cc1cc(Cn2c(=O)c3cc(S(=O)(=O)NC4(C)CC4)ccc3n(CC3(F)COC3)c2=O)on1` [Example 350], the half-inhibitory concentration (IC50) at Human Full Length PARG is 320 nM; with PARG in HeLa cell line (Homo sapiens), 341 nM.
The corresponding values for `Cn1cc(Cn2c(=O)c3cc(S(=O)(=O)NC4(C)CC4)ccc3n(CC3CC(C)(C)O3)c2=O)cn1` (stereo not drawn) [Example 351] are 229 nM and 358 nM.
The corresponding values for `CCc1nn(Cc2cc(C)no2)c(=O)c2cc(S(=O)(=O)NC3(C)CC3)ccc12` [Example 353] are 408 nM and 574 nM.
As to `Cn1cc(Cn2c(=O)c3cc(S(=O)(=O)NC4(C#N)CC4)ccc3n(CC3COC3)c2=O)cn1` [Example 354], the figures for the IC50 at Human Full Length PARG and in the assay with PARG in HeLa cell line were 164 nM and 18000 nM, respectively.
As to `C#CCn1c(=O)n(Cc2cnn(C)c2)c(=O)c2cc(S(=O)(=O)NC3(C#N)CC3)ccc21` [Example 355], the half-maximal inhibitory concentration (IC50) was 122 nM on Human Full Length PARG and 953 nM in the assay with PARG in HeLa cell line (Homo sapiens).
The corresponding values for `Cn1cc(Cn2c(=O)c3cc(S(=O)(=O)NC4(C#N)CC4)ccc3n(CC#N)c2=O)cn1` [Example 356] are 396 nM and 16600 nM.
The like results for `COCCn1c(=O)n(Cc2cnn(C)c2)c(=O)c2cc(S(=O)(=O)NC3(C#N)CC3)ccc21` [Example 357] were, in that order, 153 nM and 1600 nM.
On to `Cn1cc(Cn2c(=O)c3cc(S(=O)(=O)NC4(C#N)CC4)ccc3n(Cc3ccc(F)cc3)c2=O)cn1` [Example 358], for which the IC50 stood at 59 nM at Human Full Length PARG and 346 nM in the assay on PARG in HeLa cell line (Homo sapiens).
As to `Cc1cc(Cn2c(=O)n(Cc3cnn(C)c3)c(=O)c3cc(S(=O)(=O)NC4(C#N)CC4)ccc32)on1` [Example 359], the IC50 at Human Full Length PARG turned out to be 43 nM; in the assay on PARG in HeLa cell line (Homo sapiens) it was 1100 nM.
The corresponding values for `Cc1cc(Cn2c(=O)c3cc(S(=O)(=O)NC4(C)CC4)ccc3n(CC3CCN(C)C3)c2=O)on1` (stereo not drawn) [Example 361] are 332 nM and 1410 nM.
The corresponding values for `CSCCn1c(=O)n(Cc2cc(C)no2)c(=O)c2cc(S(=O)(=O)NC3(C)CC3)ccc21` [Example 362] are 331 nM and 126 nM.
With `Cc1cc(Cn2c(=O)c3cc(S(=O)(=O)NC4(C)CC4)ccc3n(CC3CC(F)(F)C3)c2=O)on1` [Example 363], the values for the IC50 at Human Full Length PARG and in the assay with PARG in HeLa cell line (Homo sapiens) were 353 nM and 382 nM, respectively.
Regarding `Cc1cc(Cn2c(=O)c3cc(S(=O)(=O)NC4(C)CC4)ccc3n(CC3CC3(F)F)c2=O)on1` (stereo not drawn) [Example 364], the half-inhibitory concentration (IC50) on Human Full Length PARG came out at 408 nM; in the assay with PARG in HeLa cell line (Homo sapiens) it was 106 nM.
In the case of `CSCCn1c(=O)n(Cc2cnn(C)c2)c(=O)c2cc(S(=O)(=O)NC3(C)CC3)ccc21` [Example 366], the concentration for half-maximal inhibition (IC50) on Human Full Length PARG was found to be 160 nM; with PARG in HeLa cell line (Homo sapiens), 30 nM.
Regarding `CC(=O)Cn1c(=O)n(Cc2cnn(C)c2)c(=O)c2cc(S(=O)(=O)NC3(C)CC3)ccc21` [Example 367], the IC50 on Human Full Length PARG was determined as 353 nM; with PARG in HeLa cell line it was 340 nM.
The corresponding values for `Cn1cc(Cn2c(=O)c3cc(S(=O)(=O)NC4(C)CC4)ccc3n(CCC(C)(C)O)c2=O)cn1` [Example 368] are 108 nM and 217 nM.
For the molecule `Cc1cc(Cn2c(=O)c3cc(S(=O)(=O)NC4(C)CC4)ccc3n(CC3CCN(C)CC3)c2=O)on1` [Example 371], the IC50 at Human Full Length PARG was determined as 258 nM; in the assay with PARG in HeLa cell line (Homo sapiens), 1110 nM.
The corresponding values for `CN1CCC(Cn2c(=O)n(Cc3cnn(C)c3)c(=O)c3cc(S(=O)(=O)NC4(C)CC4)ccc32)CC1` [Example 372] are 146 nM and 2140 nM.
The like results for `Cn1cc(Cn2c(=O)c3cc(S(=O)(=O)NC4(C#N)CC4)ccc3n(CC3(C)COC3)c2=O)cn1` [Example 376] were, in that order, 124 nM and 14300 nM.
The like results for `Cn1cc(Cn2c(=O)c3cc(S(=O)(=O)NC4(C#N)CC4)ccc3n(CC3CCOC3)c2=O)cn1` (stereo not drawn) [Example 377] were, in that order, 96 nM and 3990 nM.
Take `Cn1cc(Cn2c(=O)c3cc(S(=O)(=O)NC4(C#N)CC4)ccc3n(Cc3cnn(C)c3)c2=O)cn1` [Example 378]: the IC50 came to 44 nM at Human Full Length PARG and 1960 nM with PARG in HeLa cell line (Homo sapiens).
The like results for `Cc1cc(Cn2c(=O)n(Cc3cnn(C)c3)c(=O)c3cc(S(=O)(=O)NC4(C)CC4)ccc32)on1` [Example 379] were, in that order, 35 nM and 77 nM.
For `Cn1cc(Cn2c(=O)c3cc(S(=O)(=O)NC4(C)CC4)ccc3n(CC3CCSCC3)c2=O)cn1` [Example 380], the 50% inhibitory concentration (IC50) on Human Full Length PARG was found to be 59 nM; with PARG in HeLa cell line (Homo sapiens) it was 90 nM.
Take `Cc1cc(Cn2c(=O)c3cc(S(=O)(=O)NC4(C)CC4)ccc3n(CC3CCSCC3)c2=O)on1` [Example 381]: the IC50 on Human Full Length PARG worked out at 126 nM; in the assay with PARG in HeLa cell line (Homo sapiens) it was 208 nM.
Turning to `Cn1cc(Cn2c(=O)[nH]c3cc(F)c(S(=O)(=O)NC4(C)CC4)cc3c2=O)cn1` [Example 384, 7-Fluoro-N-(1-methylcyclopropyl)-3-[(1-methylpyrazol-4-yl)methyl]-2,4-dioxo-1H-quinazoline-6-sulfonamide], the values for the half-maximal inhibitory concentration (IC50) on Human Full Length PARG and in the assay on PARG in HeLa cell line were 374 nM and 974 nM, respectively.
With `Cn1cc(Cn2c(=O)c3cc(S(=O)(=O)NC4(C)CC4)c(F)cc3n(C)c2=O)cn1` [Example 385, 7-Fluoro-1-methyl-N-(1-methylcyclopropyl)-3-[(1-methylpyrazol-4-yl)methyl]-2,4-dioxo-quinazoline-6-sulfonamide], the results for the IC50 on Human Full Length PARG and with PARG in HeLa cell line (Homo sapiens) were 341 nM and 184 nM, respectively.
The like results for `Cc1ncc(Cn2c(=O)[nH]c3ccc(S(=O)(=O)NC4(C#N)CC4)cc3c2=O)s1` [Example 386, N-(1-Cyanocyclopropyl)-3-[(2-methylthiazol-5-yl)methyl]-2,4-dioxo-1H-quinazoline-6-sulfonamide] were, in that order, 369 nM and 8380 nM.
The corresponding values for `Cn1cc(Cn2c(=O)[nH]c3cc(F)c(S(=O)(=O)NC4(C#N)CC4)cc3c2=O)cn1` [Example 387, N-(1-Cyanocyclopropyl)-7-fluoro-3-[(1-methylpyrazol-4-yl)methyl]-2,4-dioxo-1H-quinazoline-6-sulfonamide] are 452 nM and 1520 nM.
For the molecule `Cn1cc(Cn2c(=O)c3cc(S(=O)(=O)NC4(C)CC4)c(F)cc3n(CC3CC3)c2=O)cn1` [Example 388], the concentration for half-maximal inhibition (IC50) at Human Full Length PARG was found to be 25 nM; in the assay with PARG in HeLa cell line (Homo sapiens), 31 nM.
The corresponding values for `CCn1c(=O)n(Cc2cnn(C)c2)c(=O)c2cc(S(=O)(=O)NC3(C)CC3)c(F)cc21` [Example 389, 1-Ethyl-7-fluoro-N-(1-methylcyclopropyl)-3-[(1-methylpyrazol-4-yl)methyl]-2,4-dioxo-quinazoline-6-sulfonamide] are 60 nM and 79 nM.
`Cn1cc(Cn2c(=O)c3cc(S(=O)(=O)NC4(C)CC4)c(F)cc3n(Cc3ccc(F)cc3)c2=O)cn1` [Example 390, 7-Fluoro-1-[(4-fluorophenyl)methyl]-N-(1-methylcyclopropyl)-3-[(1-methylpyrazol-4-yl)methyl]-2,4-dioxo-quinazoline-6-sulfonamide]: the values for the IC50 on Human Full Length PARG and with PARG in HeLa cell line were 102 nM and 70 nM, respectively.
